From US12116343B2, “Inhibitors of APOL1 and methods of using same” (Vertex Pharmaceuticals Incorporated, priority 2020, dated 2024)
Where two headings read alike, the source gives them in different places.

Molecular target: T1, G1 APOL1 (Homo sapiens, UniProt O14791, I384M/S342G)
T1 construct: expressed in transfected cells
T1 sequence (O14791 28-398 S342G/I384M): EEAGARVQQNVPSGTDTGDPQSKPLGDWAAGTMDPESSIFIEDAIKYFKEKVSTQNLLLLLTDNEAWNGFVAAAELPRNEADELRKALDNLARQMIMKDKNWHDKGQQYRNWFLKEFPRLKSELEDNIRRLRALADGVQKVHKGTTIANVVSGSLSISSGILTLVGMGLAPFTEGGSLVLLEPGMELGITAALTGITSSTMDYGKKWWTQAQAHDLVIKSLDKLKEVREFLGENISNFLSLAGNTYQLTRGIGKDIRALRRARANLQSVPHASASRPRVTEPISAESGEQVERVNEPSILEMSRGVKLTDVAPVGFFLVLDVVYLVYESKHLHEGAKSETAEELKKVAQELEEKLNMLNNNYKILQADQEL
Assay: Acute APOL1 Thallium Assay with inducible stable clones of HEK 293 cells
Assay type: cell-based
Settings: read-out: Thallium Assay (IC50)
Excerpt: Acute APOL1 Thallium Assay with Inducible Stable Clones of HEK 293 Cells
Apolipoprotein L1 (APOL1) proteins form potassium-permeable cation pores in the plasma membrane. APOL1 risk variants (G1 and G2) induce greater potassium flux than G0 in HEK293 cells. This assay exploits the permeability of thallium (Tl+) through ligand-gated potassium channels. The dye produces a bright fluorescent signal upon binding to Tl+ conducted through potassium channels. The intensity of the Tl+ signal is proportional to the number of potassium channels in the open state. Therefore, it provides a functional indication of the potassium channel activities. During the initial dye-loading step, the Tl+ indicator dye as an acetoxymethyl (AM) ester enters the cells through passive diffusion. Cytoplasm esterases cleave the AM ester and relieve its active thallium-sensitive form. The cells are then stimulated with Tl+. The increase of fluorescence in the assay represents the influx of Tl+ into the cell specifically through the potassium channel (i.e. through APOL1 pores), providing a functional measurement of potassium channel/pore activity. The Thallium assay is conducted with cells expressing G1 APOL1.
APOL1 Cell Line (HEK T-Rex Stable Inducible Cell Line) • HEK T-Rex System • Tetracycline (Tet) inducible mammalian expression system. • Stably express the Tet repressor to regulate transcription. • Expression under the full-length CMV promoter. • APOL1 stable inducible cell line Clone used: G1 DC3.25
Tissue Culture Media • Cell Culture Medium • DMEM+10% FBS+P/S+5 μg/mL blasticidin+1 μg/mL puromycin. • 500 mL DMEM+55 mL FBS+5 mL P/S+280 μL blasticidin S HCl (10 mg/mL)+56 μL puromycin (10 mg/mL). • Cell Assay Medium • DMEM with 2% FBS+pen strep.
Instruments and Equipment • Nuaire cell culture hood, Cat. No. 540-600 • 37° C./5% CO2 incubator link to robotic arm, Liconic: STX110 • Molecular Devices FLIPR^Tetra High throughput cellular screening system, Cat. No. FT0324, Molecular Devices • ThermoFisher MultiDrop 384, Cat. No. 5840300 • Biotek Microfill, Cat. No. ASF1000A-4145 • BioRad TC10 cell counter, Cat. No. 145-0010 Assay Procedures
Cells Scaled Up from Frozen Vials • APOL1 G1 3.25 (HEK293 T-Rex) frozen vials: 5 million cells per vial • Step 1, Day 1: Defrost frozen vial into T-225. • Step 2, Day 5: (when 85% confluent): Split one T-225 at 3×10^6 cells per flask. • Step 3, Day 8: Splits cells to set up for the assay plates as described below.
T-Rex APOL1 HEK cells are split twice per week to keep the confluence state below 85% of the culture flask surface area. Cells can be kept until passage 25. • Cell Culture Medium • DMEM high glucose+10% FBS, +P/S, +5 μg/mL blasticidin, +1 μg/mL puromycin. • 500 mL DMEM, +55 mL FBS, +5 mL P/S, +280 μL blasicidin 10 mg/mL, +56 μL Puromycin 10 mg/mL. • Assay Media • Opti-MEM reduced serum medium from Invitrogen.
Preparation of Cell Assay Plates • Culture medium is removed from the x cm^2 T-flask by aspiration. • The cell monolayer is rinsed with PBS 1× at room temperature. PBS is removed by aspiration. • Cells are trypsinized using Trypsin. • The flasks are incubated at room temperature for 2-3 minutes. • Complete DMEM medium is then added. Cell suspension is then transferred to a 50 mL Falcon polypropylene tube. • Cells are then counted using a Biorad TC10 cell counter and the required amount of cells are centrifuged at 1200 RPM for 5 minutes. Required amount is 1.3×10^6 cells/mL APOL1 T-Rex HEK cells. • The pellet is suspended in the assay medium. • Using the MultiDrop, add 20 μL to each well (corresponds to 26000 cells total per well) of a 384-well black, transparent, flat bottom Poly-D coated plate. • Tetracycline as prepared in the following section is added to the cells before plating to induce APOL1 expression. • Plates are left at room temperature for 20 to 30 minutes before incubation at 37° C. and 5% CO2. […]

[1] = HEK 293 T-Rex cells expressing G1 APOL1

Row | IC50 (Table 24, Compounds 287 to 465) [nM] | IC50 [1] [nM] | Compound
1 | 250 to 1000 | – | O=C(NCCO)C1CC(Cc2c(-c3ccc(F)cc3)[nH]c3c(F)cc(F)cc23)C1 (centres unmarked) [Compound 299, 3-[[5,7-difluoro-2-(4-fluorophenyl)-1H-indol-3-yl]methyl]-N-(2-hydroxyethyl)cyclobutane-1-carboxamide]
2 | > 1000 | – | Cc1cnc(CNC(=O)O[C@H]2C[C@H](c3c(-c4ccc(F)cc4)[nH]c4c(F)cc(F)cc43)C2)o1 [Compound 374]
3 | > 1000 | – | O=C(NCc1ccco1)O[C@H]1C[C@H](c2c(-c3ccc(F)cc3)[nH]c3c(F)cc(F)cc32)C1 [Compound 379]
4 | > 1000 | – | O=C(NCc1ncc[nH]1)C1CC(Cc2c(-c3ccc(F)cc3)[nH]c3c(F)cc(F)cc23)C1 (centres unmarked) [Compound 342]
5 | > 1000 | – | CN(C(=O)NC[C@H]1C[C@H](c2c(-c3ccc(F)cc3)[nH]c3c(F)cc(F)cc32)C1)C1COCC1O (some centres unmarked) [Compound 415]
6 | – | > 1000 | O=C(NCC1CC(F)(F)C1)[C@H]1C[C@@H](c2c(-c3ccc(F)cc3)[nH]c3c(F)cc(F)cc32)C1 [Compound 266]
7 | > 1000 | – | CN(CC1CC(c2c(-c3ccc(F)cc3)[nH]c3c(F)cc(F)cc23)C1)C(=O)N1CCC1 (centres unmarked) [Compound 432]
8 | > 1000 | – | C[C@@H](O)CNC(=O)N(C)CC1CC(c2c(-c3ccc(F)cc3)[nH]c3c(F)cc(F)cc23)C1 (some centres unmarked) [Compound 429]
9 | – | > 1000 | NC(=O)CNC(=O)[C@H]1C[C@@H](c2c(-c3ccc(F)cc3)[nH]c3c(F)cc(F)cc32)C1 [Compound 250]
10 | > 1000 | – | O=C(CC1CC(c2c(-c3ccc(F)cc3)[nH]c3c(F)cc(F)cc23)C1)NCCO (centres unmarked) [Compound 459]
11 | > 1000 | – | C[C@H](NC(=O)C1CC(Cc2c(-c3ccc(F)cc3)[nH]c3c(F)cc(F)cc23)C1)C(C)(C)O (some centres unmarked) [Compound 329]
12 | > 1000 | – | C[C@H](O)CNC(=O)C1CC(Cc2c(-c3ccc(F)cc3)[nH]c3c(F)cc(F)cc23)C1 (some centres unmarked) [Compound 300]
13 | – | < 250 | O=C(N[C@@H](CO)C(F)F)[C@H]1C[C@H](c2c(-c3ccc(F)cc3)[nH]c3c(F)cc(F)cc32)C1 [Compound 230]
14 | > 1000 | – | O=C(NCC1CCCO1)C1CC(Cc2c(-c3ccc(F)cc3)[nH]c3c(F)cc(F)cc23)C1 (centres unmarked) [Compound 321]

Further lines, the compound ahead of its results:

Row | Compound | IC50 (Table 24, Compounds 287 to 465) [nM] | IC50 [1] [nM]
15 | Cc1cc(CNC(=O)O[C@H]2C[C@H](c3c(-c4ccc(F)cc4)[nH]c4c(F)cc(F)cc43)C2)on1 [Compound 385] | > 1000 | –
16 | O=C(N[C@H]1CCNC1=O)O[C@H]1C[C@H](c2c(-c3ccc(F)cc3)[nH]c3c(F)cc(F)cc32)C1 [Compound 371] | > 1000 | –
17 | O=C(NCC1CCNC1=O)NC[C@H]1C[C@H](c2c(-c3ccc(F)cc3)[nH]c3c(F)cc(F)cc32)C1 (some centres unmarked) [Compound 417] | > 1000 | –
18 | O=C(CC1CC(c2c(-c3ccc(F)cc3)[nH]c3c(F)cc(F)cc23)C1)N[C@@H]1CCNC1=O (some centres unmarked) [Compound 457] | > 1000 | –
19 | O=C(NC[C@H]1C[C@H](c2c(-c3ccc(F)cc3)[nH]c3c(F)cc(F)cc32)C1)N[C@H]1CC[C@H](O)C1 [Compound 419] | > 1000 | –
20 | O=C(NCC1(CO)COC1)NC[C@H]1C[C@H](c2c(-c3ccc(F)cc3)[nH]c3c(F)cc(F)cc32)C1 [Compound 396] | > 1000 | –
21 | NC(=O)CCNC1CC(c2c(-c3ccc(F)cc3)[nH]c3c(F)cc(F)cc23)C1 (centres unmarked) [Compound 287, 3-[[3-[5,7-difluoro-2-(4-fluorophenyl)-1H-indol-3-yl]cyclobutyl]amino]propanamide] | > 1000 | –
22 | O=C(NCC1(CO)CC1)C1CC(Cc2c(-c3ccc(F)cc3)[nH]c3c(F)cc(F)cc23)C1 (centres unmarked) [Compound 323] | > 1000 | –
23 | CC1(O)CC(NC(=O)NC[C@H]2C[C@H](c3c(-c4ccc(F)cc4)[nH]c4c(F)cc(F)cc43)C2)C1 (some centres unmarked) [Compound 401] | > 1000 | –
24 | O=C(NC1(CO)CC1)[C@H]1C[C@@H](c2c(-c3ccc(F)cc3)[nH]c3c(F)cc(F)cc32)C1 [Compound 253] | – | > 1000
25 | CC(NC(=O)C1CC(Cc2c(-c3ccc(F)cc3)[nH]c3c(F)cc(F)cc23)C1)c1ccn(C)n1 (mixture of isomers) [Compound 312] | > 1000 | –
26 | CC(C)(O)CNC(=O)C1CC(Cc2c(-c3ccc(F)cc3)[nH]c3c(F)cc(F)cc23)C1 (centres unmarked) [Compound 318] | > 1000 | –
27 | O=C(NCC1(O)COC1)NC[C@H]1C[C@H](c2c(-c3ccc(F)cc3)[nH]c3c(F)cc(F)cc32)C1 [Compound 398] | > 1000 | –
28 | O=C(CC1CC(c2c(-c3ccc(F)cc3)[nH]c3c(F)cc(F)cc23)C1)NC1(CO)CCC1 (centres unmarked) [Compound 452, 2-[3-[5,7-difluoro-2-(4-fluorophenyl)-1H-indol-3-yl]cyclobutyl]-N-[1-(hydroxymethyl)cyclobutyl]acetamide] | > 1000 | –
29 | Cc1nn(C)cc1CNC(=O)C1CC(Cc2c(-c3ccc(F)cc3)[nH]c3c(F)cc(F)cc23)C1 (centres unmarked) [Compound 335] | > 1000 | –
30 | CC(C)(CO)NC(=O)O[C@H]1C[C@H](c2c(-c3ccc(F)cc3)[nH]c3c(F)cc(F)cc32)C1 [Compound 352] | 250 to 1000 | –
31 | CC(C)(O)CNC(=O)NC[C@H]1C[C@H](c2c(-c3ccc(F)cc3)[nH]c3c(F)cc(F)cc32)C1 [Compound 423] | > 1000 | –
32 | Cc1cc(CNC(=O)C2CC(Cc3c(-c4ccc(F)cc4)[nH]c4c(F)cc(F)cc34)C2)nn1C (centres unmarked) [Compound 340] | > 1000 | –
33 | CC(C)C(CO)NC(=O)[C@H]1C[C@@H](c2c(-c3ccc(F)cc3)[nH]c3c(F)cc(F)cc32)C1 (some centres unmarked) [Compound 254] | – | > 1000
34 | O=C(N[C@H]1CC[C@H](O)C1)[C@H]1C[C@H](c2c(-c3ccc(F)cc3)[nH]c3c(F)cc(F)cc32)C1 [Compound 187] | – | > 1000
35 | COCCNC(=O)CC1CC(c2c(-c3ccc(F)cc3)[nH]c3c(F)cc(F)cc23)C1 (centres unmarked) [Compound 460] | > 1000 | –
36 | C[C@@H](O)CNC(=O)O[C@H]1C[C@H](c2c(-c3ccc(F)cc3)[nH]c3c(F)cc(F)cc32)C1 [Compound 369] | > 1000 | –
37 | O=C(NC(CO)(CO)CO)O[C@H]1C[C@H](c2c(-c3ccc(F)cc3)[nH]c3c(F)cc(F)cc32)C1 [Compound 349, (1r, 3r)-3-(5,7-difluoro-2-(4-fluorophenyl)-1H-indol-3-yl)cyclobutyl (1,3-dihydroxy-2-(hydroxymethyl)propan-2-yl)carbamate] | < 250 | –
38 | Cc1c(CNC(=O)C2CC(Cc3c(-c4ccc(F)cc4)[nH]c4c(F)cc(F)cc34)C2)cnn1C (centres unmarked) [Compound 333] | > 1000 | –
